Several values for one entry are separate records, joined by “and”; a condition that tells them apart may be missing. Identical values can stand only once.
Legend:
HepG2 cells = assay: Anti-proliferative potential on liver cancer line; type: cell-based; settings: Homo sapiens, data not shown, read-out: IC50, growth inhibition of cancer cells
SphK1 [1] = biological target: T1, SphK1 (Homo sapiens, UniProt Q9NYA1); assay: Isothermal titration calorimetry; type: binding
T1 construct: His tag; made in house; host or cells: E. coli BL21-Gold (DE3)
Experimental: Binding affinity of SphK1 to quercetin was determined by using VP-ITC microcalorimeter from MicroCal, Inc (GE, MicroCal, USA). Protein sample was prepared by extensively dialyzing it against Tris buffer (20 mM Tris-HCl, pH 8.0 and 100 mM NaCl). Stock solution of compound was diluted in the last dialyzing buffer to avoid any baseline error. Equal amount of DMSO (1.0% v/v) was added to the protein solution to prevent signal stability problems during ITC measurements. 15 µM SphK1, which was kept in the sample cell with an effective volume of 2 ml, was titrated with 750 µM of compound filled in the titration calorimetry syringe. A programmed titration was performed with a first false injection of 2 µl followed by 24 successive injections of 10 µl ligand each at 300 seconds interval. The temperature of the sample and reference cell was isothermally maintained at 25 °C, and the syringe was stirred at 307 rpm during the experiment. Heat of dilution of compound into buffer solution (no protein) was also measured and subtracted from the protein’s titration data. The binding isotherm obtained was fitted with in-built origin ‘binding site’ model to derive the thermodynamic parameters viz., stoichiometry of binding (n), enthalpy change (ΔH) and association constant (Ka).

SphK1 [2] = biological target: T1, SphK1; assay: ATPase inhibition assay (malachite green, BIOMOL Green); type: biochemical; settings: 2 µM SphK1, 150 µM ATP, 25 °C; read-out: IC50 (50% of ATPase inhibition)
Experimental: ATPase activity of purified SphK1 was checked by malachite green-based (BIOMOL® Green reagent, Enzo Life sciences) microtitre-plate assay. Fixed (2 µM) amount of protein was incubated with assay buffer (20 mM Tris-HCl, pH 8.0 and 100 mM NaCl) containing 10 mM MgCl2 and increasing concentrations of ATP for 30 minutes at 25 °C. The reaction was terminated by the addition of malachite green reagent followed by incubation for 20 minutes for colour development. The absorbance of each well was measured at 620 nm on a multiplate ELISA reader. Standard phosphate curve was prepared as described by manufacturer’s protocol and used to quantity the amount of free inorganic released from ATP by kinase activity. Thereafter, ATPase inhibition assay for SphK1 was performed in the presence of compounds. Firstly, Protein (2 µM) was pre-incubated with increasing concentrations of ligand at room temperature for 60 minutes in 96-well plate. 10 mM MgCl2 and 150 µM freshly prepared ATP was then added to the reaction mixture and incubated for 30 minutes at 25 °C. To terminate the reaction, BIOMOL® reagent was added and incubated for 20 minutes followed by absorbance measurement at 620 nm. The amount of free inorganic released was determined with the help of standard phosphate curve as described. All the measurements were performed in triplicates.

A549 cells = assay: Anti-proliferative potential on lung cancer line; type: cell-based; settings: Homo sapiens, data not shown, read-out: IC50, growth inhibition of cancer cells
SphK1 [3] = biological target: T1, SphK1; assay: Fluorescence binding studies (Trp quenching, modified Stern-Volmer); settings: for Binding constant Ka: fluorescence quenching, 25 °C, 4 µM SphK1; for Kd: from fluorescence binding constant, read-out: Dissociation constant KD
Experimental: Fluorescence quenching experiments were carried out on Jasco spectroflourimeter (FP-6200) using 5 mm quartz cuvette. The temperature was maintained at 25 ± 0.1 °C by external thermostated peltier device. Stock solution of ligands was prepared in DMSO and diluted to a working concentration of 50 µM in Tris buffer just prior to taking measurements. Protein solution (4 µM) was titrated with increasing concentrations of ligand and the fluorescence emission spectrum was recorded in the range of 300–400 nm by keeping the excitation wavelength constant at 280 nm. The excitation and emission slit widths were kept at 10 nm. The final spectra were obtained by subtracting with the corresponding blank. For data analysis, fluorescence intensity at λmax was plotted against [ligand, μM] and then modified Stern-Volmer equation (Eq. 1) was used to derive binding parameters viz., binding constant (Ka) and number of binding sites (n) per molecule of protein for ligand-SphK1 system.1 log(F0−F/F)=logKa+nlog[Q]
To validate our docking results, the binding affinity of selected natural compounds with SphK1 was calculated using fluorescence measurements. A number of molecular interactions, including formation of an excited charge-transfer complex, intersystem crossing to the triplet state, molecular rearrangements, and ground-state complex formation between the fluorophore and quencher can lead fluorescence quenching. […] 4 µM of SphK1 was titrated by the successive addition of selected natural compounds from a 1.0 mM stock solution of ligands. The intrinsic fluorescence spectra were then collected in the range of 300–400 nm by keeping the excitation wavelength at 280 nm. The concentration of ligands was varied from 0 to 50 µM to obtain the saturation point.

[4] = ITC, 25 °C, sequential binding, site 1
[5] = ITC, 25 °C, sequential binding, site 2
[6] = ITC, 25 °C, sequential binding, site 3
[7] = ITC, 25 °C, single binding site model

T1 sequence (Q9NYA1 whole entry): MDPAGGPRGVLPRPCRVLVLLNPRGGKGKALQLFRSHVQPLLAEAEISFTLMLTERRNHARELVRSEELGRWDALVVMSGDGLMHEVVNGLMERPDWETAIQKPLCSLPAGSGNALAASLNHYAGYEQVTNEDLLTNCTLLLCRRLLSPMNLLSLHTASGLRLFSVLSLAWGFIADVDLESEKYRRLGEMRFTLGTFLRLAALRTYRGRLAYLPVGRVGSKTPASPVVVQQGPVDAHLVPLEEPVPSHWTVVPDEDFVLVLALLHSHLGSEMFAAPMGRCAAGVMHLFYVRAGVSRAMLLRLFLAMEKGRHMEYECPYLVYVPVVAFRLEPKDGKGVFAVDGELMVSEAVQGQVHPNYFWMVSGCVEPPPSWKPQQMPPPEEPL

Q: What does the source list for `O=c1c(O)c(-c2ccc(O)c(O)c2)oc2cc(O)cc(O)c12` [Quercetin, quercetin]?
A: IC50 (HepG2 cells): 49.1 µM; Toxicity towards normal counterparts (HEK293 cells): did not impart any toxicity; Kd (SphK1 [1]): 125 µM; Association constant Ka1 (SphK1 [1]; [4]): Ka1 = 5.89 × 10^4 ± 5.0 × 10^3 M^−1; Enthalpy Change ΔH1 (SphK1 [1]; [4]): ΔH1 = −5204 ± 435 cal/mol; ΔS1 (SphK1 [1]; [4]): ΔS1 = 4.37 cal/mol/deg; Kd (SphK1 [1]; ITC, 25 °C, sequential binding, site 1, read-out: Dissociation Constant KD1): 16.9 µM; Association constant Ka2 (SphK1 [1]; [5]): Ka2 = 2.36 × 10^5 ± 8.0 × 10^3 M^−1; Enthalpy Change ΔH2 (SphK1 [1]; [5]): ΔH2 = −9883 ± 696 cal/mol; ΔS2 (SphK1 [1]; [5]): ΔS2 = −8.57 cal/mol/deg; Kd (SphK1 [1]; ITC, 25 °C, sequential binding, site 2, read-out: Dissociation Constant KD2): 4.2 µM; Association constant Ka3 (SphK1 [1]; [6]): Ka3 = 1.06 × 10^4 ± 4.0 × 10^2 M^−1; Enthalpy Change ΔH3 (SphK1 [1]; [6]): ΔH3 = 3829 ± 2.18 × 10^3 cal/mol; ΔS3 (SphK1 [1]; [6]): ΔS3 = 32.3 cal/mol/deg; Kd (SphK1 [1]; ITC, 25 °C, sequential binding, site 3, read-out: Dissociation Constant KD3): 94.3 µM; ΔS4 (SphK1 [1]; ITC, 25 °C, sequential binding, site 4): ΔS4 = −294 cal/mol/deg; Kd (SphK1 [1]; ITC, 25 °C, sequential binding, site 4, read-out: Dissociation Constant KD4): 10.7 µM; IC50 (SphK1 [2]): ~2.8 µM; IC50 (A549 cells): 55.9 µM; Binding constant Ka (SphK1 [3]): 438000 M⁻¹; Kd (SphK1 [3]): 2.28 µM

Q: Which “Association constant Ka” value (SphK1 [1]; [7]) does the source give for `COc1cc(CNC(=O)CCCC/C=C/C(C)C)ccc1O` [Capsaicin, capsaicin] here?
A: Its value is 102000 ± 66200 M⁻¹.

Q: What about the “Enthalpy Change ΔH” value (SphK1 [1]; [7]) of the same compound?
A: The value was −1.00 × 10^4 ± 727.6 cal/mol.

Q: What about the ΔS (SphK1 [1]; [7]) of the same compound?
A: The ΔS was −10.8 cal/mol/deg.

Q: What about the Kd (SphK1 [1]; ITC, 25 °C, single binding site model, read-out: Dissociation Constant KD) of the same compound?
A: The Kd was 9.8 µM.

Q: And the IC50 (SphK1 [2])?
A: The IC50 was ~27 µM and 27 µM.

Q: And the “Binding constant Ka” value (SphK1 [3])?
A: The value was 15300 M⁻¹.

Q: What about the Kd (SphK1 [3]) of the same compound?
A: The Kd was 65.4 µM.
